Assay results as given in paper PMC8766756, “Insights on Cancer Cell Inhibition, Subcellular Activities, and Kinase Profile of Phenylacetamides Pending 1H-Imidazol-5-One Variants” (Frontiers in Pharmacology, 2022).
Entries after “also recorded” stand apart in the source; their conditions may differ.

Tests used:
HL60 cells = experiment: Cell cycle analysis by flow cytometry; format: cell-based, human; settings: HL60, 1 µM, 48 h, vs untreated control
Method: The cell cycle analysis of the HL60 cells after treatment was performed with 1 µM of KIM-161 by using flow cytometry.
The cells (3.5 × 10^5/well) were incubated with 1 µM 4c (KIM-161) at 37°C for 48 h. Subsequently, the cells were collected and washed twice with ice-cold PBS (1X). The washed cells were fixed on ice for 20 min using a fixation buffer containing paraformaldehyde. Hoechst 33342 (10 μg/ml; Thermo Fisher Scientific, Inc.) was used for staining. The cells were then incubated in the dark for 30 min on ice. A minimum total of 20,000 events were acquired using a BD FACSAria III flow cytometer. Flowlogic version 7.2.1 software (Inivai Technologies, Victoria, Australia) was used to obtain the percentages of cells in the G1, S, and G2/M phases in the singlet-gated population.

[1] = Reactivity with GSH (LC/MS); format: physicochemical; settings: 37°C
Text: Because KIM-161 contains α,β-enone moiety, it was investigated for its reactivity with glutathione (GSH), an important cellular component for maintaining the desired redox balance ([Aquilano et al., 2014]).
GSH and solvents were purchased from Sigma-Aldrich. The LC/MS system is composed of an Agilent 1200 HPLC system, a solvent delivery module, a quaternary pump, an autosampler, and a column compartment (Agilent Technology, Germany). The column effluent was connected to an Agilent 6320 Ion Trap-ESI-MS. The column heater was set to 25 ± 2°C. The control of the HPLC system and data processing were performed using ChemStation (Rev. B.01.03 SR2-204) and 6300 Series Trap Control version 6.2 Build No. 62.24 (Bruker Daltonik GmbH). The analytes were separated using an Agilent Zorbax Extend-C18 column (80Å, 150 mm length × 4.6 mm, i.d., 5 μm) and Agilent-Zorbax Extend-C18 pre-column (Agilent Technologies, Palo Alto, CA, USA). The general MS adjustments were set as follows: capillary voltage, 4000 V; nebulizer, 35 psi; drying gas, 12 L/min; desolvation temperature, 350°C; ion charge control smart target, 150,000; and max. accumulation time, 150 ms. The Auto-MSn positive mode was applied. The mobile system was isocratic elution using 55% acetonitrile and 45% water containing 0.1% formic acid (w/v). […]

[2] = Stability in mouse plasma; format: in vitro ADME; settings: 1 µM, t1/2; listed as KIM-161
Method: The assay was conducted at 37°C in triplicate. The test compound KIM-161 or procaine (the positive control) was tested at a final concentration of 1 µM in either 2.5% DMSO/CD-1 mouse plasma (Innovative Research, Novi, MI; sodium heparin added as anticoagulant; pH adjusted to 7.4 with 2N HCl on the day of use) or 2.5% DMSO/PBS (pH 7.4; 136.9 mM NaCl, 2.68 mM KCl, 8.1 mM Na2HPO4, 1.47 mM KH2PO4, 0.9 mM CaCl2, and 0.49 mM MgCl2). At seven time points, the reaction mixture aliquots were transferred to 96-shallow-well stop plates on ice containing acetonitrile with 0.1 µM propafenone. Samples were analyzed by LC/MS/MS on a Waters Xevo TQ instrument as described above using positive electrospray ionization. The assay acceptance criterion was 20% for all standards and 25% for the LLOQ. GraphPad® Prism v.5.04 was used for nonlinear fitting of data to generate t1/2 values.

NB4 leukemia cell line = experiment: CellTiter-Blue cell viability assay; format: cell-based; settings: Homo sapiens, NB-4, 48 h
Method: (§1) The compounds were screened for their anticancer activities against a variety of cancer cell lines. The cytotoxic effect of the compounds was evaluated using the sulforhodamine B (SRB) cytotoxicity assay for breast cancer line (MCF7) and prostate cancer cell line (PC3) ([Vichai and Kirtikara, 2006]; [Rana et al., 2021]) and 3-(4,5-dimethylthiazol-2-yl)-2,5-diphenyl-2H-tetrazolium bromide (MTT) assay for the colon cancer (HCT116) cell lines ([El-Huneidi et al., 2020]). The CellTiter-Blue® cell viability assay was performed on the various leukemia cell lines, HL60, NB4, and KG1a cells ([Akter et al., 2019]). The IC50 values are illustrated in Table 1.
(§2) HL60, NB4, and KG1a were purchased from CLS Cell Line Service GmbH (Eppelheim, Germany). All cell lines were cultured in RPMI-1640 medium supplemented with 10% FBS (Thermo Fisher Scientific) and ciprofloxacin (10 μg/ml; Cipla Limited; Mumbai, India), at 37°C with 5% CO2 in a humidified incubator.
(§3) The CellTiter-Blue® Cell Viability assay was acquired from Promega Corporation (Madison, WI, USA). The cell viability assay was performed as follows: the cells (10^4/well) were incubated with a concentration gradient of the test compounds ranging from 0.01 to 100 μM, in 96-well plates for 48 h at 37°C. Subsequently, 20 µL of the CellTiter-Blue® Cell Viability reagent was added to each well and incubated for an additional 2 h for the development of fluorescence. The fluorescence emission was measured at 590 nm using the SpectraMax® i3x Multi-Mode Microplate Reader (Molecular Devices, LLC; San Jose, CA, USA.) and plotted against the drug concentrations to determine the IC50 of the test compounds.

KG1a leukemia cell line = experiment: CellTiter-Blue cell viability assay; format: cell-based; settings: Homo sapiens, KG-1a, 48 h
Method: as §1, §2, §3

HL60 leukemia cell line = experiment: CellTiter-Blue cell viability assay; format: cell-based; settings: Homo sapiens, HL-60, 48 h, read-out: IC50 ± SEM HL60
Method: as §1, §2, §3

## COc1ccc(/C=C2\N=C(C)N(c3ccc(CC(=O)NCc4ccccc4)cc3)C2=O)cc1 [Compound 4c, (Z)-N-Benzyl-2-(4-(4-(4-methoxybenzylidene)-2-methyl-5-oxo-4,5-dihydro-1H-imidazol-1-yl)phenyl)acetamide]
HL60 cells
  Cell cycle distribution: G0/G1 phase: decrease in the G0/G1 phase
  Cell cycle distribution: G2/M phase: increased the population of cells in the G2/M phase
  Cell cycle distribution: PreG phase: accumulate in PreG phase
  Cell cycle distribution: S phase: no difference is seen in cell population in the S phase
[1]; pH 7.5, up to 48 h, LC/MS, listed as KIM-161
  Reactivity with GSH: did not show any significant reaction with GSH; also recorded: could not react with GSH; also recorded: No reaction
[1]; after 48 h with GSH
  unreacted compound (UV spectrum): > 98%
[2]
  Stability in mouse plasma at 37°C: >300 min
NB4 leukemia cell line
  IC50: 275 nM
KG1a leukemia cell line
  IC50: 893 nM
HL60 leukemia cell line
  IC50: 362 ± 20 nM
